Drawing on ChEMBL document CHEMBL3621121, “Modeling, synthesis and NMR characterization of novel chimera compounds targeting STAT3” (Medchemcomm, 2014), this text covers inhibition for ten molecules.

For orientation: inhibition means the change of the read-out against control, counted positive when it falls.

For experiment [1], the target named is Signal transducer and activator of transcription 3 (Homo sapiens) (UniProt P40763). Briefly: Inhibition of STAT3 in human HCT116 cells at 10 uM after 24 hrs by firefly and renilla dual luciferase assay. In kind it is cell-based. Conditions: HCT-116.
For experiment [2] the target is unchanged. Kind of experiment: Inhibition of STAT3 in human HCT116 cells at 50 uM after 24 hrs by firefly and renilla dual luciferase assay. In kind it is cell-based. The settings on record: HCT-116.
The target is the same in experiment [3]. Kind of experiment: Inhibition of SH2 domain of STAT3 (unknown origin) using (FITC)-GpYLPQTV after 90 mins by AlphaScreen bead-based nonradioactive assay. (Alpha assays give light when donor and acceptor beads are brought close together.)

Sequence of Signal transducer and activator of transcription 3 (Homo sapiens) (P40763 whole entry): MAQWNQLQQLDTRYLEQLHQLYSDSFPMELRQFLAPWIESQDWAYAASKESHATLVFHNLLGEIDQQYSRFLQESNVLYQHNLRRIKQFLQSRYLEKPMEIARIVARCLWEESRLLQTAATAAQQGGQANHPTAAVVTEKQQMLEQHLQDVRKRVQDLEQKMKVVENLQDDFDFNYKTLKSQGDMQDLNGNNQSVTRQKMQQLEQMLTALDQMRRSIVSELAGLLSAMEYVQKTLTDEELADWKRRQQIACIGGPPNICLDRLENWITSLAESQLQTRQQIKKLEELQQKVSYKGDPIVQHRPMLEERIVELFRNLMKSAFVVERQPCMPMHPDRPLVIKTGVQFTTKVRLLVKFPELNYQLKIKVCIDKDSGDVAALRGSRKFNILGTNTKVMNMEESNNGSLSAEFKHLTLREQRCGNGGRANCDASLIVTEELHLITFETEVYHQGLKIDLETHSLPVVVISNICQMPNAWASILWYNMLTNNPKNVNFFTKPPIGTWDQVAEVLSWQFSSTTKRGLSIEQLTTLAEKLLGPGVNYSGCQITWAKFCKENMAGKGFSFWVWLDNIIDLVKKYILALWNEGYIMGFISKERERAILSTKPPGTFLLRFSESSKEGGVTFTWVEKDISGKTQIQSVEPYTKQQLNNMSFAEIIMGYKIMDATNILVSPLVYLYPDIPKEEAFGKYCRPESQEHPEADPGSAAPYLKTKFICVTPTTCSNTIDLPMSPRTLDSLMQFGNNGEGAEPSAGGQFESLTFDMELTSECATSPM

Turning to `C[C@H]1COC2=C1C(=O)C(=O)c1c2ccc2c1CCCC2(C)C`, the results for the inhibition in experiment [1] and in experiment [2] were 78% and 85%, respectively.
For `O=C(Nc1ccc(C(F)(F)F)cc1)C1Cc2cc(=O)[nH]nc2-c2ccccc21` (racemic), the inhibition in experiment [1] came to 2%; in experiment [2], 7%.
The matching figures for `O=C1CC2CC(C(=O)Nc3ccc(C(F)(F)F)cc3)c3ccccc3C2=NN1` (racemic; 1): -3% and 6%.
The matching figures for `O=C1CC2CC(C(=O)Nc3ccc(C(F)(F)F)cc3)c3ccccc3C2=NN1` (racemic; 2): -6% and 3%.
In the case of `O=C1CC2CC(C(=O)Nc3ccc(C(F)(F)F)cc3)c3ccccc3C2=NN1` (single isomer, unassigned; (+)-1), the inhibition in experiment [3] is under 5%; in experiment [1], 9%; in experiment [2], 35%.
Regarding `O=C1CC2CC(C(=O)Nc3ccc(C(F)(F)F)cc3)c3ccccc3C2=NN1` (single isomer, unassigned; (+)-2a), the inhibition is -8% in experiment [1] and 12% in experiment [2].
Turning to `O=C(Nc1ccc(C(F)(F)F)cc1)C1Cc2cc(=O)[nH]nc2-c2ccccc21` (single isomer, unassigned; (-)), the inhibition in experiment [1] was 2%; in experiment [2], 30%.
With `O=C1CC2CC(C(=O)Nc3ccc(C(F)(F)F)cc3)c3ccccc3C2=NN1` (single isomer, unassigned; (-)-1), the inhibition in experiment [1] amounted to 9%; in experiment [2], 14%.
`O=C1CC2CC(C(=O)Nc3ccc(C(F)(F)F)cc3)c3ccccc3C2=NN1` (single isomer, unassigned; (-)-2b): the figures for the inhibition in experiment [1] and in experiment [2] were 1% and 16%, respectively.
Consider `O=C(Nc1ccc(C(F)(F)F)cc1)C1Cc2cc(=O)[nH]nc2-c2ccccc21` (stereo in doubt; (+)-3a), for which the inhibition in experiment [1] is -2%; in experiment [2], 24%.
